Here are results for one compound from ChEMBL document CHEMBL6120973 (J Med Chem, 2024).

The nature of data set [1]: Solubility of compound in phosphate buffer at pH 2.0 measured after 24 hrs by HPLC analysis. The data set is classed as physicochemical.
Data set [2] can be described thus: Solubility of compound in phosphate buffer at pH 7.0 measured after 24 hrs by HPLC analysis. The data set is classed as physicochemical.
A short description of data set [3]: Solubility of compound in phosphate buffer at pH 7.4 measured after 24 hrs by HPLC analysis. The data set is classed as physicochemical.
Data set [4] in a line: Solubility of compound in Watson's distilled pure water measured after 24 hrs by HPLC analysis. In kind it is physicochemical.
Data set [5] in a line: Half-life in male Sprague-Dawley rat at 1 mg/kg, iv measured after 24 hrs by LC-MS analysis. In kind it is ADME, organism-based. As to conditions: in vivo.
Data set [6] in a line: Tmax in male Sprague-Dawley rat at 1 mg/kg, iv measured after 24 hrs by LC-MS analysis. The data set is classed as ADME, organism-based. Conditions: in vivo.
Data set [7] is described as follows: Cmax in male Sprague-Dawley rat at 1 mg/kg, iv measured after 24 hrs by LC-MS analysis. In kind it is ADME, organism-based. As to conditions: in vivo.
A short description of data set [8]: AUC (0 to t) in male Sprague-Dawley rat at 1 mg/kg, iv measured after 24 hrs by LC-MS analysis. The data set is classed as ADME, organism-based. As to conditions: in vivo.
A short description of data set [9]: AUC (0 to infinity) in male Sprague-Dawley rat at 1 mg/kg, iv measured after 24 hrs by LC-MS analysis. The data set is classed as ADME, organism-based. Conditions: in vivo.
Data set [10] in a line: MRT (0 to t) in male Sprague-Dawley rat at 1 mg/kg, iv measured after 24 hrs by LC-MS analysis. The data set is classed as ADME, organism-based. Conditions: in vivo.
A short description of data set [11]: MRT (0 to infinity) in male Sprague-Dawley rat at 1 mg/kg, iv measured after 24 hrs by LC-MS analysis. The data set is classed as ADME, organism-based. As to conditions: in vivo.
A short description of data set [12]: Clearance in male Sprague-Dawley rat at 1 mg/kg, iv measured after 24 hrs by LC-MS analysis. In kind it is ADME, organism-based. Conditions: in vivo.
Data set [13] can be described thus: Half-life in male Sprague-Dawley rat at 10 mg/kg, po measured after 24 hrs by LC-MS analysis. Conditions: in vivo. The data set is classed as ADME, organism-based.
Data set [14] in a line: Tmax in male Sprague-Dawley rat at 10 mg/kg, po measured after 24 hrs by LC-MS analysis. In kind it is ADME, organism-based. As to conditions: in vivo.
The nature of data set [15]: Cmax in male Sprague-Dawley rat at 10 mg/kg, po measured after 24 hrs by LC-MS analysis. The data set is classed as ADME, organism-based. Conditions: in vivo.
Data set [16] is described as follows: AUC (0 to t) in male Sprague-Dawley rat at 10 mg/kg, po measured after 24 hrs by LC-MS analysis. In kind it is ADME, organism-based. Conditions: in vivo.
Data set [17] in a line: AUC (0 to infinity) in male Sprague-Dawley rat at 10 mg/kg, po measured after 24 hrs by LC-MS analysis. In kind it is ADME, organism-based. Conditions: in vivo.
Data set [18] can be described thus: MRT (0 to t) in male Sprague-Dawley rat at 10 mg/kg, po measured after 24 hrs by LC-MS analysis. Conditions: in vivo. In kind it is ADME, organism-based.
Data set [19] can be described thus: MRT (0 to infinity) in male Sprague-Dawley rat at 10 mg/kg, po measured after 24 hrs by LC-MS analysis. In kind it is ADME, organism-based. As to conditions: in vivo.
A short description of data set [20]: Oral bioavailability in male Sprague-Dawley rat at 10 mg/kg measured after 24 hrs by LC-MS analysis. In kind it is ADME, organism-based. As to conditions: in vivo.

Take `Cc1cc(-c2ccncc2)cc(C)c1Nc1nc(Nc2ccc(C#N)cc2)ncc1-c1cn[nH]c1.Cl`: the solubility at 24 h is 782 µg/mL in data set [1], below 1 µg/mL in data set [2], below 1 µg/mL in data set [3] and 366 µg/mL in [4]. Further, the half-life in [5] was 0.84 h; in data set [13], 2.92 h. For the same compound, the Tmax in data set [6] was determined as 4.8 min; in data set [14], 1 h. Also, the maximum concentration (Cmax) in data set [7] worked out at 572 ng/mL; in [15], 862 ng/mL. In addition, the AUC(0-t) at 24 h in data set [8] came out at 600 ng·h/mL; in data set [16] it was 3460 ng·h/mL. Further, the total exposure AUC(0-inf) in [9] came out at 605 ng·h/mL; in data set [17], 3470 ng·h/mL. For the same compound, the results for the MRT last at 24 h in [10] and in [18] were 1.1 h and 3.04 h, respectively. Besides, the mean residence time MRT inf in data set [11] came out at 1.14 h; in [19], 3.14 h. In data set [12], this compound had a clearance of 30.3 mL/min/kg. In [20], the bioavailability was 57.4%.
